Like-named read-outs stand apart in the source and are kept apart here.
Experiments:
[1] = biological target: T1, MMP-2 (Homo sapiens, UniProt P08253); assay: MMP-2 inhibition assay (fluorogenic peptide substrate); assay type: biochemical; details: for IC50: n.d: not detected; for remaining activity (%): MMP-2
T1 construct: purchased Sino Biological 10082-HNAH
T1 sequence (P08253 110-660): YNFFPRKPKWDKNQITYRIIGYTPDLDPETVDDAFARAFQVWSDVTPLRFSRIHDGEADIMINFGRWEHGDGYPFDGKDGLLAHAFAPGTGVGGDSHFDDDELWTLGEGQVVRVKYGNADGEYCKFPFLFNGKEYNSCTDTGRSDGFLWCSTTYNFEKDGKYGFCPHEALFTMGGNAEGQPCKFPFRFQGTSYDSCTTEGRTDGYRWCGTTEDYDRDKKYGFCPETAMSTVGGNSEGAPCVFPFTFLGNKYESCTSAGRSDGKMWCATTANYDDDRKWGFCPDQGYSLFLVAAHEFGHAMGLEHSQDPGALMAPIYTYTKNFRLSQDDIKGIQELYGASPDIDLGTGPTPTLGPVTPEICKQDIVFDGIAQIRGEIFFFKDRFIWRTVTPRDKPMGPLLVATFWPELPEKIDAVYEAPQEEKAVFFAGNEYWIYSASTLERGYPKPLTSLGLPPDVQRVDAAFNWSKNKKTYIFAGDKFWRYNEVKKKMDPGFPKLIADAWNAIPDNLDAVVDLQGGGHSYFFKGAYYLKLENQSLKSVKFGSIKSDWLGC
Method: (§1) The inhibition by the small molecule compounds against MMP-2/MMP-9 was measured using an assay probing the enzyme proteolytic activity on the substrate DNP-Pro-Leu-Gly-Met-Trp-Ser-Arg (Enzo Life Sciences, USA). All assays were performed in the assay buffer containing 50 mM Tris, 100 mM NaCl. 5 mM CaCl2, and 0.1% Brij 35, pH 7.5. Human proMMP-2 and proMMP-9 were purchased from Sino biological (Germany). The proMMPs were activated by 1 mM APMA in the assay buffer at 37 °C for 2 h. After activation, MMP-2 was diluted to 6.5 nM of final assay concentration, and MMP-9 was diluted by the buffer to reach 10 nM of final assay concentration. In each well, 49 μl of enzyme solution was incubated with 1 μl of compounds of series of concentration (nM-mM in DMSO) at RT for 30 min. 2 μl of the FRET substrate was added right before the measurement at a final concentration of 25 μM. The rate of hydrolysis was monitored by quantifying the emission at 360 nm (ex: 280 nm). The emission was measured with intervals of the 30 s for 30 min with Synergy H1 Plate Reader (Agilent, USA). The measurements were done in triplicate. […] Then, curves were plotted as a function of the concentration of the inhibitor against the relative enzyme activity. Vmax was derived from the detected […] signal for each concentration and logistic fitting was performed to obtain IC50 values using Origin 2019b (OriginLab).

[2] = biological target: T2, MMP-9 (Homo sapiens, UniProt P14780); assay: MMP-9 inhibition assay (fluorogenic peptide substrate); assay type: biochemical; parameters: remaining enzyme activity (% of control): scale not given here; details: for IC50: n.d: not detected; for remaining enzyme activity (% of control): MMP-9
T2 construct: purchased Sino Biological 10327-HNAH
Method: as §1

[3] = Figure 5d, fragment combination joined by linker, read-out: MMP2 IC50
[4] = Figure 5d, fragment combination joined by linker, read-out: MMP9 IC50
[5] = mean ± SE, Fig. 5d unit inferred, µM, read-out: IC50
[6] = mean ± SE, Fig. 5e prints no unit, µM, read-out: IC50

T2 sequence (P14780 107-707 limits assumed): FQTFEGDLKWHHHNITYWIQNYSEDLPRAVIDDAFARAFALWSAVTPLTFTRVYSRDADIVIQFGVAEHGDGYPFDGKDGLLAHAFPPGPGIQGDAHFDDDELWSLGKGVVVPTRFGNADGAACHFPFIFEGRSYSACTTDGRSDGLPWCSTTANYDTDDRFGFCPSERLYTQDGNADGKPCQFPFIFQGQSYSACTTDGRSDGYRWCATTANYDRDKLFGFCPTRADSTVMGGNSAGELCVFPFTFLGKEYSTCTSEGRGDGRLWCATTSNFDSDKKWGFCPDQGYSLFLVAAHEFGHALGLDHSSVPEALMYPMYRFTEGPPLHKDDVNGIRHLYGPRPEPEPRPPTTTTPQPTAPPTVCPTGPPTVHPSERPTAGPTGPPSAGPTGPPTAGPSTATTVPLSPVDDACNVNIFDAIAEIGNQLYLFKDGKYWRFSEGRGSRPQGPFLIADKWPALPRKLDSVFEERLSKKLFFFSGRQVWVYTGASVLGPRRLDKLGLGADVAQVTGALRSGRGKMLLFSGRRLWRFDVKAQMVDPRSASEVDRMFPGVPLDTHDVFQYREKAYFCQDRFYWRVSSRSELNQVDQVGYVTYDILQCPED

Cc1cc(=O)[nH]c(-n2nc(C)c(CCC(=O)NCCCCCCCCNC(=O)CCC(=O)NCc3c[nH]nn3)c2C)n1 [693_787 4]
IC50 [1, 3]: 169 µM | IC50 [2, 4]: 250 µM

O=C(/C=C/CCCCNC(=O)c1cncc(O)c1)CC(=O)NCCNC(=O)Cn1cnc2c(oc3ccccc32)c1=O [182+828 Linker 12]
remaining activity at 0.0168 µM ([1]; MMP-2, concentration 0.0168 µM, read-out: Mean (MMP-2, Supplementary fig 16)): 102% | remaining activity at 0.08 µM ([1]; MMP-2, concentration 0.08 µM, read-out: Mean (MMP-2, Supplementary fig 16)): 100% | remaining activity at 0.42 µM ([1]; MMP-2, concentration 0.42 µM, read-out: Mean (MMP-2, Supplementary fig 16)): 98.9% | remaining activity at 2.1 µM ([1]; MMP-2, concentration 2.10 µM, read-out: Mean (MMP-2, Supplementary fig 16)): 113% | remaining activity at 10.52 µM ([1]; MMP-2, concentration 10.52 µM, read-out: Mean (MMP-2, Supplementary fig 16)): 85.5% | remaining activity at 52.6 µM ([1]; MMP-2, concentration 52.60 µM, read-out: Mean (MMP-2, Supplementary fig 16)): 48.1% | remaining activity at 263 µM ([1]; MMP-2, concentration 263.00 µM, read-out: Mean (MMP-2, Supplementary fig 16)): 6.96% | remaining activity at 1315 µM ([1]; MMP-2, concentration 1315.00 µM, read-out: Mean (MMP-2, Supplementary fig 16)): 0% | IC50 [1, 5]: 50.3 ± 11.1 µM | remaining activity at 0.0466 µM ([2]; MMP-9, concentration 0.0466 µM, read-out: Mean (MMP-9, Supplementary fig 16)): 97.3% | remaining activity at 0.23 µM ([2]; MMP-9, concentration 0.23 µM, read-out: Mean (MMP-9, Supplementary fig 16)): 81.8% | remaining activity at 1.17 µM ([2]; MMP-9, concentration 1.17 µM, read-out: Mean (MMP-9, Supplementary fig 16)): 81.4% | remaining activity at 5.83 µM ([2]; MMP-9, concentration 5.83 µM, read-out: Mean (MMP-9, Supplementary fig 16)): 70.8% | remaining activity at 29.14 µM ([2]; MMP-9, concentration 29.14 µM, read-out: Mean (MMP-9, Supplementary fig 16)): 63.8% | remaining activity at 145.72 µM ([2]; MMP-9, concentration 145.72 µM, read-out: Mean (MMP-9, Supplementary fig 16)): 15.2% | remaining activity at 728.6 µM ([2]; MMP-9, concentration 728.60 µM, read-out: Mean (MMP-9, Supplementary fig 16)): 0% | IC50 [2, 6]: 45.9 ± 24.2 µM

Cc1cc(=O)[nH]c(-n2nc(C)c(CCC(=O)NCCCCCCCCNC(=O)CCC(=O)NCc3c[nH]nn3)c2C)n1 [693+787 Linker 4]
remaining activity (%) ([1]; concentration 0.0156 µM): 90.99 | remaining activity (%) ([1]; concentration 0.08 µM): 98.42 | remaining activity (%) ([1]; concentration 0.39 µM): 91.65 | remaining activity (%) ([1]; concentration 1.95 µM): 90.86 | remaining activity (%) ([1]; concentration 9.75 µM): 84.93 | remaining activity (%) ([1]; concentration 48.76 µM): 72.64 | remaining activity (%) ([1]; concentration 243.80 µM): 40.04 | remaining activity (%) ([1]; concentration 1219.00 µM): 8.77 | IC50 [1, 5]: 169 ± 32.6 µM | remaining enzyme activity (% of control) ([2]; concentration 0.08 µM): 100.71 | remaining enzyme activity (% of control) ([2]; concentration 0.39 µM): 80.60 | remaining enzyme activity (% of control) ([2]; concentration 1.95 µM): 86.03 | remaining enzyme activity (% of control) ([2]; concentration 9.75 µM): 91.12 | remaining enzyme activity (% of control) ([2]; concentration 48.76 µM): 86.75 | remaining enzyme activity (% of control) ([2]; concentration 243.80 µM): 51.81 | remaining enzyme activity (% of control) ([2]; concentration 1219.00 µM): 0.00 | IC50 [2, 6]: 250 ± 24.6 µM

O=C(C=CCCCCNC(=O)c1cncc(O)c1)CC(=O)NCC12CC3CC(CC(C3)C1)C2 [66+828 Linker 12]
remaining activity (%) ([1]; concentration 0.0156 µM): 99.10 | remaining activity (%) ([1]; concentration 0.08 µM): 102.47 | remaining activity (%) ([1]; concentration 0.39 µM): 95.82 | remaining activity (%) ([1]; concentration 1.95 µM): 94.73 | remaining activity (%) ([1]; concentration 9.75 µM): 93.23 | remaining activity (%) ([1]; concentration 48.76 µM): 86.38 | remaining activity (%) ([1]; concentration 243.80 µM): 70.35 | remaining activity (%) ([1]; concentration 1219.00 µM): 22.32 | IC50 [1, 5]: 488 ± 45.3 µM | remaining enzyme activity (% of control) ([2]; concentration 0.08 µM): 103.52 | remaining enzyme activity (% of control) ([2]; concentration 0.39 µM): 103.70 | remaining enzyme activity (% of control) ([2]; concentration 1.95 µM): 101.49 | remaining enzyme activity (% of control) ([2]; concentration 9.75 µM): 97.37 | remaining enzyme activity (% of control) ([2]; concentration 48.76 µM): 61.33 | remaining enzyme activity (% of control) ([2]; concentration 243.80 µM): 18.36 | remaining enzyme activity (% of control) ([2]; concentration 1219.00 µM): 3.09 | IC50 [2, 6]: 77.4 ± 13.9 µM

Cc1cc(=O)[nH]c(-n2nc(C)c(CCC(=O)NCCCCCCCCNC(=O)c3cncc(O)c3)c2C)n1 [693+828 Linker 4]
remaining activity (%) ([1]; concentration 0.0156 µM): 102.68 | remaining activity (%) ([1]; concentration 0.08 µM): 100.17 | remaining activity (%) ([1]; concentration 0.39 µM): 95.94 | remaining activity (%) ([1]; concentration 1.95 µM): 99.37 | remaining activity (%) ([1]; concentration 9.75 µM): 100.31 | remaining activity (%) ([1]; concentration 48.76 µM): 87.56 | remaining activity (%) ([1]; concentration 243.80 µM): 44.10 | remaining activity (%) ([1]; concentration 1219.00 µM): 12.13 | IC50 [1, 5]: 212 ± 15.9 µM | remaining enzyme activity (% of control) ([2]; concentration 0.08 µM): 97.75 | remaining enzyme activity (% of control) ([2]; concentration 0.39 µM): 94.18 | remaining enzyme activity (% of control) ([2]; concentration 1.95 µM): 90.34 | remaining enzyme activity (% of control) ([2]; concentration 9.75 µM): 92.01 | remaining enzyme activity (% of control) ([2]; concentration 48.76 µM): 87.31 | remaining enzyme activity (% of control) ([2]; concentration 243.80 µM): 52.96 | remaining enzyme activity (% of control) ([2]; concentration 1219.00 µM): 7.04 | IC50 [2, 6]: 261 ± 31.3 µM

O=C(CCC(=O)NCc1c[nH]nn1)NCCCCCCCCNC(=O)Cn1cnc2c(oc3ccccc32)c1=O [182_787 4]
IC50 [1, 3]: 193 µM | IC50 [2, 4]: 134 µM

O=C(/C=C/CCCCNC(=O)c1cncc(O)c1)CC(=O)NCCNC(=O)Cn1cnc2c(oc3ccccc32)c1=O [182_828 12]
IC50 [1, 3]: 50.3 µM | IC50 [2, 4]: 45.9 µM

O=C(CSCCNC(=O)c1cncc(O)c1)NCC12CC3CC(CC(C3)C1)C2 [66_828 24]
IC50 [1, 3]: 184 µM | IC50 [2, 4]: 216 µM

Cc1cc(=O)[nH]c(-n2nc(C)c(CCC(=O)NCCNC(=O)c3cnc4c(c3)nc(O)n4C)c2C)n1 [693+826 Linker 1]
remaining activity (%) ([1]; concentration 0.12 µM): 100.61 | remaining activity (%) ([1]; concentration 0.49 µM): 101.27 | remaining activity (%) ([1]; concentration 1.95 µM): 97.44 | remaining activity (%) ([1]; concentration 7.81 µM): 105.49 | remaining activity (%) ([1]; concentration 31.25 µM): 103.49 | remaining activity (%) ([1]; concentration 125.00 µM): 92.36 | remaining activity (%) ([1]; concentration 500.00 µM): 84.19 | remaining enzyme activity (% of control) ([2]; concentration 0.12 µM): 100.10 | remaining enzyme activity (% of control) ([2]; concentration 0.49 µM): 107.84 | remaining enzyme activity (% of control) ([2]; concentration 1.95 µM): 98.21 | remaining enzyme activity (% of control) ([2]; concentration 7.81 µM): 95.90 | remaining enzyme activity (% of control) ([2]; concentration 31.25 µM): 93.30 | remaining enzyme activity (% of control) ([2]; concentration 125.00 µM): 76.07 | remaining enzyme activity (% of control) ([2]; concentration 500.00 µM): 54.11

Cc1cc(=O)[nH]c(-n2nc(C)c(CCC(=O)NCCNC(=O)CC(=O)/C=C/CCCCNC(=O)c3cncc(O)c3)c2C)n1 [693_828 12]
IC50 [1, 3]: 10 µM | IC50 [2, 4]: 14.8 µM

Cn1c(O)nc2cc(C(=O)NCC34CC5CC(CC(C5)C3)C4)cnc21 [66+826 Linker 1]
remaining activity (%) ([1]; concentration 0.12 µM): 104.18 | remaining activity (%) ([1]; concentration 0.49 µM): 97.92 | remaining activity (%) ([1]; concentration 1.95 µM): 99.61 | remaining activity (%) ([1]; concentration 7.81 µM): 91.81 | remaining activity (%) ([1]; concentration 31.25 µM): 84.92 | remaining activity (%) ([1]; concentration 125.00 µM): 90.24 | remaining activity (%) ([1]; concentration 500.00 µM): 77.04 | remaining enzyme activity (% of control) ([2]; concentration 0.12 µM): 90.98 | remaining enzyme activity (% of control) ([2]; concentration 0.49 µM): 79.87 | remaining enzyme activity (% of control) ([2]; concentration 1.95 µM): 80.91 | remaining enzyme activity (% of control) ([2]; concentration 7.81 µM): 80.18 | remaining enzyme activity (% of control) ([2]; concentration 31.25 µM): 77.01 | remaining enzyme activity (% of control) ([2]; concentration 125.00 µM): 59.34 | remaining enzyme activity (% of control) ([2]; concentration 500.00 µM): 44.40
